According to paper PMC12621189, “Optimization of Selective and CNS Penetrant Alkyne-Based TREK Inhibitors: The Discovery and Characterization of ONO-9517601 (VU6022856) and ONO-7927846 (VU6024391)” (Journal of Medicinal Chemistry, 2025):
Where “and” joins values, the source holds several entries; their conditions need not be identical. Equal values may be shown once.

What was measured:
[1] = molecular target: T1, human TREK-1 (hTREK-1) (Homo sapiens, UniProt O95069); test: TREK-1 thallium flux assay (CHO-K1 cells stably expressing hTREK-1); assay type: cell-based; conditions: human TREK-1, thallium flux; read-out: h TREK-1 Tl+ IC50
T1 construct: expressed in transfected cells
T1 sequence (O95069 1-426): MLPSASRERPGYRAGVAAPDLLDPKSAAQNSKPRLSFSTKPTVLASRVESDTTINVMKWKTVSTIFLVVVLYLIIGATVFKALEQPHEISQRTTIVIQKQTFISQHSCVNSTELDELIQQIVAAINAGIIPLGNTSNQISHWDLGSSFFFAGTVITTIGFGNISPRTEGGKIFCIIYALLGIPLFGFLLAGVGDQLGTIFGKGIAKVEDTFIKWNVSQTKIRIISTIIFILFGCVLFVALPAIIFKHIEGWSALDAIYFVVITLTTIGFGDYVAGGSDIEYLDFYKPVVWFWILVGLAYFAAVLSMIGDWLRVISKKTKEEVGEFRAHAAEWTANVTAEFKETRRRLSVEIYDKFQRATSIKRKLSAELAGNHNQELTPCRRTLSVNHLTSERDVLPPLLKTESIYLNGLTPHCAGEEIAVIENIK
How it was run: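 Cells loaded with FluxOR dye were preincubated 10 min with test compound in 0.3% DMSO, then given thallium stimulus buffer. ΔRatio was fluorescence 25 s after thallium over pre-thallium baseline; % inhibition was normalised between vehicle and 10 μM reference blocker, and IC50 was fitted from concentration–response.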

[2] = molecular target: CYP 2C9 (Homo sapiens, UniProt P11712); test: CYP450 inhibition 2C9; assay type: in vitro ADME
[3] = Liver microsome intrinsic clearance, rat; assay type: in vitro ADME; conditions: for CLint scaled at 1 µM: pH 7.4, rat liver microsomes, predicted intrinsic clearance, read-out: LMS CLINT rat; for Predicted CLhep rat: from microsomal CLint
Protocol: were incubated in 100 mM potassium phosphate pH 7.4 buffer with 3 mM MgCl2 at 37 °C with constant shaking. After a 5 min preincubation, the reaction was initiated by the addition of NADPH (1 mM). At selected time intervals (0, 3, 7, 15, 25, and 45 min), aliquots were taken and subsequently placed into a 96-well plate containing cold acetonitrile with internal standard (50 ng/mL carbamazepine). Plates were then centrifuged at 3000 rcf (4 °C) for 10 min, and the supernatant was transferred to a separate 96-well plate and diluted 1:1 with water for LC/MS/MS analysis. The in vitro half-life ( 1/2, min, Eq. 1), intrinsic clearance (CLint, mL/min/kg, Eq. 2), and subsequent predicted hepatic clearance (CLhep, mL/min/kg, Eq. 3) was determined employing the […]
where k represents the slope from linear regression analysis of the natural log percent remaining of a test compound as a function of incubation time […]
(2) CLint = in vitroT x mg microsomes x gram liver x kg body wt ascale-up factors: of 20 (human) or 45 (rat) […]
where Qh (hepatic blood flow, mL/min/kg) is 21 (human) or 70 (rat).
LC/MS/MS Bioanalysis of Samples from Plasma Protein Binding and Intrinsic Clearance […]
Samples were analyzed on a Thermo Electron TSQ Quantum Ultra triple quad mass spectrometer (San Jose, CA) via electrospray ionization (ESI) with two Themo Electron Accella pumps (San Jose, CA), and a Leap Technologies CTC PAL autosampler (Carrboro, NC). Analytes were […]

[4] = molecular target: A3 (Homo sapiens, UniProt P0DMS8); test: Functional assay, adenosine A3; assay type: biochemical
[5] = IV/PO pharmacokinetic study, dog (beagle); assay type: in vivo; conditions: for clearance: beagle, dog, iv, read-out: CLp; for clearance / Vd / half-life / Cmax: plasma; for clearance / CLp / Vd / half-life: iv 1 mg/kg (10), 0.5 mg/kg (11); for Vd: read-out: Vss; for half-life: read-out: elimination t1/2 (converted); for Cmax / F (%) po: po 1 mg/kg
[6] = molecular target: CYP 2D6 (Homo sapiens, UniProt P10635); test: CYP450 inhibition 2D6; assay type: in vitro ADME
[7] = molecular target: Kv4.3 (Homo sapiens, UniProt Q9UK17); test: MPC ion channel panel, Kv4.3; assay type: cell-based
[8] = molecular target: T2, rat TREK-1 (Rattus norvegicus, UniProt Q920B6); test: rat TREK-1 thallium flux; assay type: cell-based; conditions: read-out: TREK-1 IC50 (rat, Tl+)
T2 sequence (Q920B6 1-426): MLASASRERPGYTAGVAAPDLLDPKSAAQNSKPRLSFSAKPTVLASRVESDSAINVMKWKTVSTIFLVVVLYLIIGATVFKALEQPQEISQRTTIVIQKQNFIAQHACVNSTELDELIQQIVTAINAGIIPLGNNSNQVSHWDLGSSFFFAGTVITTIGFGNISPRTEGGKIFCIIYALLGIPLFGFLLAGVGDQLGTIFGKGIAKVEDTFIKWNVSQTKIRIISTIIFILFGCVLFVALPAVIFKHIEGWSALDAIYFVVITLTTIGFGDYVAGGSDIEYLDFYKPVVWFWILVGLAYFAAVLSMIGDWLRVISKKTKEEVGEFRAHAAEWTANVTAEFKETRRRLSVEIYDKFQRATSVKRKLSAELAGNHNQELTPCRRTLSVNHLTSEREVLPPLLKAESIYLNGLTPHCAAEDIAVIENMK

Sequence of Kv4.3 (Q9UK17 whole entry): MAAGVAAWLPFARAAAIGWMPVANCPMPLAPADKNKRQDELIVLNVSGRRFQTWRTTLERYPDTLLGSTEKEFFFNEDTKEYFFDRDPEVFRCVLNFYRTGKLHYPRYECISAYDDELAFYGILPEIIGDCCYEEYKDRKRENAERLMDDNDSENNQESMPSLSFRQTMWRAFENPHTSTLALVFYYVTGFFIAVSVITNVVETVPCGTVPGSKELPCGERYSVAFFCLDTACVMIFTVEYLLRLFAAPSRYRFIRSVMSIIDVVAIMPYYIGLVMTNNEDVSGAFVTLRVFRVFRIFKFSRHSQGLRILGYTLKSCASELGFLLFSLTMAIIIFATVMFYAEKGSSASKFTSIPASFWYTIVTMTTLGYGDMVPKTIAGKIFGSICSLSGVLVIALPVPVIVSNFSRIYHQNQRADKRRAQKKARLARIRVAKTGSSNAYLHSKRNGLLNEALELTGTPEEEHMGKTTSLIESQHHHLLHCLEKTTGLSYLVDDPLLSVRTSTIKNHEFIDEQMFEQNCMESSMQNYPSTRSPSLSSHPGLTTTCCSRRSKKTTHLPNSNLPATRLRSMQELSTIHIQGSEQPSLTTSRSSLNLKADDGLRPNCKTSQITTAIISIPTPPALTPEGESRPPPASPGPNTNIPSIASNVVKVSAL
Sequence of A3 (P0DMS8 whole entry): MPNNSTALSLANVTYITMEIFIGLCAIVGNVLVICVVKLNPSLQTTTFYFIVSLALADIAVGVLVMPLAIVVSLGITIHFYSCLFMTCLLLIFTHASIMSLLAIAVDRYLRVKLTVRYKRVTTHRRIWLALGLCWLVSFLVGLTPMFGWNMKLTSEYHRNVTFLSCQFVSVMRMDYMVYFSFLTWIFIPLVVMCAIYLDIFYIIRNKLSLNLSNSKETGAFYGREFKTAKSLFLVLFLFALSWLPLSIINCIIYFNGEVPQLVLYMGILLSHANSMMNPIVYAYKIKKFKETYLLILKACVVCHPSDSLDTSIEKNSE
Sequence of CYP 2D6 (P10635 whole entry): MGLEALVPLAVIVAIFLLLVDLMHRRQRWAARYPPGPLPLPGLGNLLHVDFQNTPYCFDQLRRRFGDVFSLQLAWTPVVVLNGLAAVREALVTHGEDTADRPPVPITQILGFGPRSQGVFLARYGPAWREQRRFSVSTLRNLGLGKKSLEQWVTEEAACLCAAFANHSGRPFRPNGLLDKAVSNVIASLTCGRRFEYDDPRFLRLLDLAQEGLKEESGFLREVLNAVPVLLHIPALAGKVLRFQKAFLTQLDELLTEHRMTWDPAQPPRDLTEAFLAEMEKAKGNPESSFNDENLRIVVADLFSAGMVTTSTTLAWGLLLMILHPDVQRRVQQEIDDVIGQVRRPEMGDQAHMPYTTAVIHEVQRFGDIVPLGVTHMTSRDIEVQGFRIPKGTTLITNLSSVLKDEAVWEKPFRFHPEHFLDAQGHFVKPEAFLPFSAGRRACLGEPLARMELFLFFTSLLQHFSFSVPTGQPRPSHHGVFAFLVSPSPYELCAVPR
Sequence of CYP 2C9 (P11712 whole entry): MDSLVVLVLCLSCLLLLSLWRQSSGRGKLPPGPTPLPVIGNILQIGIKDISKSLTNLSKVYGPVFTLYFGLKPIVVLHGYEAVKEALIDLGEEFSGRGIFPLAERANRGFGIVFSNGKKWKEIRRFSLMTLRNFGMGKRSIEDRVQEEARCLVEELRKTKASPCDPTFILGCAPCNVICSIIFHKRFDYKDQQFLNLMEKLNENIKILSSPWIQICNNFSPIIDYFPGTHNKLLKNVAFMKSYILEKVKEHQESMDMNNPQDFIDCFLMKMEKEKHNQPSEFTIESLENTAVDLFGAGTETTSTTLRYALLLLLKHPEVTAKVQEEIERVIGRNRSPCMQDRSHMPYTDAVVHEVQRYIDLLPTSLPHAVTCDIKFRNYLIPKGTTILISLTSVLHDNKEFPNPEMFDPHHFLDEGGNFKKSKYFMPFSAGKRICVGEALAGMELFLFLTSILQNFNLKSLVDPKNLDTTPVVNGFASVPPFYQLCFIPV

| SMILES | IC50 [1] | IC50 [2] | CLint scaled at 1 µM [3] | Predicted CLhep rat [3] | IC50 [4] | clearance [5] | CLp [5] | Vd [5] | half-life [5] | Cmax [5] | F (%) po [5] | IC50 [6] | inhibition at 10 µM [7] | IC50 [8] |
| --- | --- | --- | --- | --- | --- | --- | --- | --- | --- | --- | --- | --- | --- | --- |
| Cc1cc(C#Cc2ccccc2)cnc1NC(=O)c1cc(OC[C@@H]2COCCO2)ccc1Cl [Compound 7, (S)-5-((1,4-Dioxan-2-yl)methoxy)-2-chloro-N-(3-methyl-5-(phenylethynyl)pyridin-2-yl)benzamide] | 210 nM | – | – | – | – | – | – | – | – | – | – | – | – | – |
| CC(=O)N1CCC(n2ncc(Cl)c2C(=O)Nc2ncc(C#Cc3ccccc3)cc2C)CC1 [Compound 10, 1-(1-Acetylpiperidin-4-yl)-4-chloro-N-(3-methyl-5-(phenylethynyl)pyridin-2-yl)-1H-pyrazole-5-carboxamide] | 67 nM and 70 nM | 6100 nM | 62 mL/min/kg | 32.9 mL/min/kg | 5370 nM | < 2 mL/min/kg | 1.9 mL/min/kg | 5.9 L/kg | 56 h | 315 ng/mL | 97% | 10300 nM | ≤ 50% | 280 nM |
| CC(=O)N1CC[C@@H](n2ncc(Cl)c2C(=O)Nc2ncc(C#Cc3ccc(F)cc3)cc2C)[C@H](F)C1 [Compound 11, 1-((3R,4R)-1-Acetyl-3-fluoropiperidin-4-yl)-4-chloro-N-(5-((4-fluorophenyl)ethynyl)-3-methylpyridin-2-yl)-1H-pyrazole-5-carboxamide] | 110 nM | 4900 nM | 40 mL/min/kg | 25.4 mL/min/kg | 19800 nM | < 2 mL/min/kg | 1.5 mL/min/kg | 7.1 L/kg | 76 h | 263 ng/mL | 100% | 7000 nM | ≤ 50% | 290 nM |
| Cc1cc(C#Cc2ccccc2)cnc1NC(=O)c1c(Cl)cnn1[C@H]1CCOC1 [Compound 15a, (S)-4-Chloro-N-(3-methyl-5-(phenylethynyl)pyridin-2-yl)-1-(tetrahydrofuran-3-yl)-1H-pyrazole-5-carboxamide] | 360 nM | – | 49 mL/min/kg | – | – | – | – | – | – | – | – | – | – | – |
